In US10750743B2, “Pyridazinone herbicides” (E.I. DU PONT DE NEMOURS AND COMPANY, priority 2015, dated 2020):

Experiments:
Assay type in all cases: in vivo
[1] = system: Foxtail, Green; test: Test A preemergence, directed soil spray, visual injury rating; conditions: 0 is no effect, 100 is complete control
[2] = system: barnyardgrass (Echinochloa crus-galli); test: as above; conditions: 0 is no effect, 100 is complete control
Method in brief: (§1)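 Seeds sown in a loam soil–sand blend received a directed preemergence soil spray of test chemical in a non-phytotoxic solvent mixture with surfactant. Postemergence plants were sprayed at 2 to 10 cm, one- to two-leaf stage. After approximately 10 d in greenhouse, injury was visually rated 0 (no effect) to 100 (complete control) against untreated controls.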

[3] = system: kochia (Kochia scoparia); test: as above; conditions: 0 is no effect, 100 is complete control
Method in brief: as §1

[4] = system: pigweed (Amaranthus retroflexus); test: as above; conditions: 0 is no effect, 100 is complete control
Method in brief: as §1

[5] = system: ragweed (common ragweed, Ambrosia elatior); test: as above; conditions: 0 is no effect, 100 is complete control
Method in brief: as §1

[6] = system: ryegrass, It. (Italian ryegrass, Lolium multiflorum); test: as above; conditions: 0 is no effect, 100 is complete control
Method in brief: as §1

[7] = system: barnyardgrass (Echinochloa crus-galli); test: Test B flooded paddy test, visual rating; conditions: Flood, 250 g ai/ha, applied to paddy water, rated after 13 to 15 d
Method in brief: (§2)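 Plants at the 2-leaf stage were flooded to 3 cm above soil, and test compounds were applied directly into the paddy water, which was held at that depth throughout. After 13 to 15 d in a greenhouse, injury was rated visually against untreated controls on a 0–100 scale (0 no effect, 100 complete control).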

[8] = system: ducksalad (Heteranthera limosa); test: Test B flooded paddy test, visual rating; conditions: Flood, 250 g ai/ha, applied to paddy water, rated after 13 to 15 d
Method in brief: as §2

[9] = system: rice (Oryza sativa); test: Test B flooded paddy test, visual rating; conditions: Flood, 250 g ai/ha, applied to paddy water, rated after 13 to 15 d
Method in brief: as §2

[10] = system: sedge, umbrella (small-flower umbrella sedge, Cyperus difformis); test: Test B flooded paddy test, visual rating; conditions: Flood, 250 g ai/ha, applied to paddy water, rated after 13 to 15 d
Method in brief: as §2

[11] = system: Foxtail, Green; test: Test A postemergence application, visual injury rating; conditions: 0 to 100 scale, 0 no effect, 100 complete control
[12] = system: barnyardgrass (Echinochloa crus-galli); test: as above; conditions: 0 to 100 scale, 0 no effect, 100 complete control
Method in brief: as §1

[13] = system: blackgrass (Alopecurus myosuroides); test: as above; conditions: 0 to 100 scale, 0 no effect, 100 complete control
Method in brief: as §1

[14] = system: corn (Zea mays); test: as above; conditions: for Corn plant response rating: 0 to 100 scale, 0 no effect, 100 complete control
Method in brief: as §1

[15] = system: galium (catchweed bedstraw, Galium aparine); test: as above; conditions: for Galium plant response rating: 0 to 100 scale, 0 no effect, 100 complete control
Method in brief: as §1

[16] = system: kochia (Kochia scoparia); test: as above; conditions: for Kochia plant response rating: 0 to 100 scale, 0 no effect, 100 complete control
Method in brief: as §1

[17] = system: pigweed (Amaranthus retroflexus); test: as above; conditions: for Pigweed plant response rating: 0 to 100 scale, 0 no effect, 100 complete control
Method in brief: as §1

[18] = system: ragweed (common ragweed, Ambrosia elatior); test: as above; conditions: for Ragweed plant response rating: 0 to 100 scale, 0 no effect, 100 complete control
Method in brief: as §1

[19] = system: ryegrass, It. (Italian ryegrass, Lolium multiflorum); test: as above; conditions: for Ryegrass, It. plant response rating: 0 to 100 scale, 0 no effect, 100 complete control
Method in brief: as §1

[20] = system: wheat (Triticum aestivum); test: as above; conditions: for Wheat plant response rating: 0 to 100 scale, 0 no effect, 100 complete control
Method in brief: as §1

[21] = system: foxtail, giant (giant foxtail, Setaria faberii); test: Test A preemergence, directed soil spray, visual injury rating; conditions: 0 is no effect, 100 is complete control
Method in brief: as §1

[22] = system: foxtail, giant (giant foxtail, Setaria faberii); test: Test A postemergence application, visual injury rating
Method in brief: as §1

[23] = 31 g ai/ha, 0 is no effect, 100 is complete control

CCC(=O)Oc1c(C)nn(C)c(=O)c1-c1c(C(F)(F)F)ccc2cc(C)oc12 [Compound 47]
20: Plant response rating (0 to 100 scale), Ragweed ([5]; 31 g ai/ha)
70: Galium plant response rating ([15]; 31 g ai/ha) | Kochia plant response rating ([16]; 125 g ai/ha)
30: Plant response rating (0 to 100 scale), Barnyardgrass ([2]; 125 g ai/ha) | Ryegrass, It. plant response rating ([19]; 125 g ai/ha)
0: Plant response rating (0 to 100 scale), Foxtail, Green ([1]; 31 g ai/ha) | Plant response rating (0 to 100 scale), Foxtail, Green ([1]; 125 g ai/ha) | Plant response rating (0 to 100 scale), Barnyardgrass ([2]; 31 g ai/ha) | Plant response rating (0 to 100 scale), Ryegrass, It. ([6]; 31 g ai/ha) | Barnyardgrass plant response rating (0 to 100 scale, 0 is no effect, 100 is complete control) [7] | Ducksalad plant response rating (0 to 100 scale, 0 is no effect, 100 is complete control) [8] | Rice plant response rating (0 to 100 scale, 0 is no effect, 100 is complete control) [9] | Sedge, Umbrella plant response rating (0 to 100 scale, 0 is no effect, 100 is complete control) [10] | Foxtail, Green plant response rating ([11]; 31 g ai/ha) | Barnyardgrass plant response rating ([12]; 31 g ai/ha) | Blackgrass plant response rating ([13]; 125 g ai/ha) | Corn plant response rating ([14]; 31 g ai/ha) | Corn plant response rating ([14]; 125 g ai/ha) | Ryegrass, It. plant response rating ([19]; 31 g ai/ha) | Wheat plant response rating ([20]; 31 g ai/ha) | Wheat plant response rating ([20]; 125 g ai/ha)
50: Plant response rating (0 to 100 scale), Kochia ([3]; 125 g ai/ha)
10: Foxtail, Green plant response rating ([11]; 125 g ai/ha) | Barnyardgrass plant response rating ([12]; 125 g ai/ha)
40: Plant response rating (0 to 100 scale), Kochia ([3]; 31 g ai/ha) | Kochia plant response rating ([16]; 31 g ai/ha) | Ragweed plant response rating ([18]; 31 g ai/ha)
100: Plant response rating (0 to 100 scale), Pigweed ([4]; 125 g ai/ha)
60: Plant response rating (0 to 100 scale), Pigweed ([4]; 31 g ai/ha)
90: Pigweed plant response rating ([17]; 31 g ai/ha) | Pigweed plant response rating ([17]; 125 g ai/ha)
80: Plant response rating (0 to 100 scale), Ragweed ([5]; 125 g ai/ha) | Plant response rating (0 to 100 scale), Ryegrass, It. ([6]; 125 g ai/ha) | Galium plant response rating ([15]; 125 g ai/ha) | Ragweed plant response rating ([18]; 125 g ai/ha)

Cc1cc2c(-c3c(O)c(C)nn(C)c3=O)c(C)ccc2s1 [Compound 72]
60: Foxtail, Giant plant response rating ([22]; 125 g ai/ha, 0 to 100 scale, 0 no effect, 100 complete control)
90: Plant response rating (0 to 100 scale), Ragweed ([5]; 125 g ai/ha) | Plant response rating (0 to 100 scale), Ryegrass, It. ([6]; 31 g ai/ha) | Plant response rating (0 to 100 scale), Galium [15, 23] | Kochia plant response rating ([16]; 125 g ai/ha) | Plant response rating (0 to 100 scale), Pigweed [17, 23] | Pigweed plant response rating ([17]; 125 g ai/ha) | Ragweed plant response rating ([18]; 125 g ai/ha) | Plant response rating (0 to 100 scale), Ryegrass, It. [19, 23]
30: Plant response rating (0 to 100 scale), Barnyardgrass ([2]; 125 g ai/ha) | Barnyardgrass plant response rating ([12]; 31 g ai/ha) | Plant response rating (0 to 100 scale), Foxtail, Giant [22, 23]
40: Plant response rating (0 to 100 scale), Foxtail, Giant ([21]; 125 g ai/ha) | Plant response rating (0 to 100 scale), Kochia ([3]; 125 g ai/ha) | Barnyardgrass plant response rating ([12]; 125 g ai/ha) | Blackgrass plant response rating ([13]; 31 g ai/ha)
70: Plant response rating (0 to 100 scale), Pigweed ([4]; 31 g ai/ha) | Plant response rating (0 to 100 scale), Pigweed ([4]; 125 g ai/ha) | Plant response rating (0 to 100 scale), Ragweed ([5]; 31 g ai/ha) | Plant response rating (0 to 100 scale), Kochia [16, 23] | Plant response rating (0 to 100 scale), Ragweed [18, 23]
80: Blackgrass plant response rating ([13]; 125 g ai/ha)
0: Plant response rating (0 to 100 scale), Barnyardgrass ([2]; 31 g ai/ha) | Plant response rating (0 to 100 scale), Foxtail, Giant ([21]; 31 g ai/ha) | Plant response rating (0 to 100 scale), Kochia ([3]; 31 g ai/ha) | Barnyardgrass plant response rating (0 to 100 scale, 0 is no effect, 100 is complete control) [7] | Ducksalad plant response rating (0 to 100 scale, 0 is no effect, 100 is complete control) [8] | Rice plant response rating (0 to 100 scale, 0 is no effect, 100 is complete control) [9] | Sedge, Umbrella plant response rating (0 to 100 scale, 0 is no effect, 100 is complete control) [10] | Plant response rating (0 to 100 scale), Corn [14, 23] | Corn plant response rating ([14]; 125 g ai/ha) | Plant response rating (0 to 100 scale), Wheat [20, 23] | Wheat plant response rating ([20]; 125 g ai/ha)
100: Plant response rating (0 to 100 scale), Ryegrass, It. ([6]; 125 g ai/ha) | Galium plant response rating ([15]; 125 g ai/ha) | Ryegrass, It. plant response rating ([19]; 125 g ai/ha)
